Measured values published in US20150105252A1, “SUBSTITUTED PYRAZOLES AS HERBICIDES” (E I DU PONT DE NEMOURS AND COMPANY, priority 2013, published 2015).

Key:
bluegrass [1] = assay: Test D preemergence; assay type: in vivo, Poa annua; conditions: for Plant response rating, Bluegrass: Preemergence, scale 0 to 100
Source text: (§1) Seeds of plant species selected from bluegrass (annual bluegrass, Poa annua), blackgrass (Alopecurus myosuroides), canarygrass (littleseed canarygrass, Phalaris minor), chickweed (common chickweed, Stellaria media), galium (catchweed bedstraw, Galium aparine), bromegrass, downy (downy bromegrass, Bromus tectorum), field poppy (Papaver rhoeas), field violet (Viola arvensis), foxtail, green (green foxtail, Setaria viridis), deadnettle (henbit deadnettle, Lamium amplexicaule), ryegrass, Italian (Italian ryegrass, Lolium multiflorum), kochia (Kochia scoparia), lambsquarters (Chenopodium album), oilseed rape (Brassica napus), pigweed (redroot pigweed, Amaranthus retroflexus), chamomile (scentless chamomile, Matricaria inodora), speedwell (bird's-eye speedwell, Veronica persica), barley, spring (spring barley, Hordeum vulgare), wheat, spring (spring wheat, Triticum aestivum), buckwheat, wild (wild buckwheat, Polygonum convolvulus), mustard, wild (wild mustard, Sinapis arvensis), oat, wild (wild oat, Avena fatua), radish, wild (wild radish, Raphanus raphanistrum), windgrass (Apera spica-venti), Russian thistle (Salsola kali), barley, winter (winter barley, Hordeum vulgare), and wheat, winter (winter wheat, Triticum aestivum) were planted into a silt loam soil and treated preemergence with test chemicals formulated in a non-phytotoxic solvent mixture which included a surfactant.
(§2) At the same time, these species were planted in pots containing Redi-Earth® planting medium (Scotts Company, 14111 Scottslawn Road, Marysville, Ohio 43041) comprising spaghnum peat moss, vermiculite, wetting agent and starter nutrients and treated with postemergence applications of the test chemicals formulated in the same manner. Plants ranged in height from 2 to 18 cm (1- to 4-leaf stage). Treated plants and controls were maintained in a controlled growth environment for 14 to 21 days after which time all species were compared to controls and visually evaluated. Plant response ratings, summarized in Table D, are based on a scale of 0 to 100 where 0 is no effect and 100 is complete control. A dash (-) response means no test result.

canarygrass = assay: Test D preemergence; assay type: in vivo, Phalaris minor; conditions: for Plant response rating, Canarygrass: Preemergence, scale 0 to 100
Source text: as §1, §2

field violet = assay: Test D preemergence; assay type: in vivo, Viola arvensis; conditions: for Plant response rating, Field Violet: Preemergence, scale 0 to 100
Source text: as §1, §2

deadnettle = assay: Test D preemergence; assay type: in vivo, Lamium amplexicaule; conditions: for Plant response rating, Deadnettle: Preemergence, scale 0 to 100
Source text: as §1, §2

ryegrass, Italian = assay: Test D preemergence; assay type: in vivo, Lolium multiflorum; conditions: for Plant response rating, Ryegrass, Italian: Preemergence, scale 0 to 100
Source text: as §1, §2

pigweed [2] = assay: Test D preemergence; assay type: in vivo, Amaranthus retroflexus; conditions: Preemergence, scale 0 to 100
Source text: as §1, §2

chamomile [3] = assay: Test D preemergence; assay type: in vivo, Matricaria inodora; conditions: for Plant response rating, Chamomile: Preemergence, scale 0 to 100
Source text: as §1, §2

barley, spring = assay: Test D preemergence; assay type: in vivo, Hordeum vulgare; conditions: for Plant response rating, Barley, Spring: Preemergence, scale 0 to 100
Source text: as §1, §2

barley, winter = assay: Test D preemergence; assay type: in vivo, Hordeum vulgare; conditions: for Plant response rating, Barley, Winter: Preemergence, scale 0 to 100
Source text: as §1, §2

buckwheat, wild = assay: Test D preemergence; assay type: in vivo, Polygonum convolvulus; conditions: for Plant response rating, Buckwheat, Wild: Preemergence, scale 0 to 100
Source text: as §1, §2

bluegrass [4] = assay: Test D postemergence; assay type: in vivo, Poa annua; conditions: scale 0 to 100
Source text: as §1, §2

blackgrass = assay: Test D postemergence; assay type: in vivo, Alopecurus myosuroides; conditions: scale 0 to 100
Source text: as §1, §2

galium = assay: Test D postemergence; assay type: in vivo, Galium aparine; conditions: scale 0 to 100
Source text: as §1, §2

bromegrass, downy = assay: Test D postemergence; assay type: in vivo, Bromus tectorum; conditions: scale 0 to 100
Source text: as §1, §2

lambsquarters = assay: Test D postemergence; assay type: in vivo, Chenopodium album; conditions: scale 0 to 100
Source text: as §1, §2

pigweed [5] = assay: Test D postemergence; assay type: in vivo, Amaranthus retroflexus; conditions: scale 0 to 100
Source text: as §1, §2

chamomile [6] = assay: Test D postemergence; assay type: in vivo, Matricaria inodora; conditions: scale 0 to 100
Source text: as §1, §2

radish, wild = assay: Test D postemergence; assay type: in vivo, Raphanus raphanistrum; conditions: scale 0 to 100
Source text: as §1, §2

[7] = 16 g ai/ha, taken as preemergence

CCc1cc(C(=O)NOC(C)C)nn1Cc1cccc(OC(F)(F)F)c1 [Compound 70]
60: Galium plant response rating (galium; Postemergence, 31 g ai/ha) | Pigweed plant response rating (pigweed [5]; Postemergence, 31 g ai/ha) | Pigweed plant response rating (pigweed [5]; postemergence, 62 g ai/ha)
15: Plant response rating, Chamomile (chamomile [3]; 125 g ai/ha) | Plant response rating, Barley, Spring (barley, spring; 250 g ai/ha)
70: Galium plant response rating (galium; postemergence, 62 g ai/ha)
10: Plant response rating, Bluegrass (bluegrass [1]; 250 g ai/ha) | Plant response rating, Barley, Winter (barley, winter; 250 g ai/ha) | Bromegrass, Downy plant response rating (bromegrass, downy; Postemergence, 250 g ai/ha) | Plant response rating, Chamomile (chamomile [6]; Postemergence, 16 g ai/ha) | Plant response rating, Radish, Wild (radish, wild; Postemergence, 16 g ai/ha) | Radish, Wild plant response rating (radish, wild; Postemergence, 31 g ai/ha) | Radish, Wild plant response rating (radish, wild; postemergence, 62 g ai/ha)
80: Galium plant response rating (galium; Postemergence, 250 g ai/ha) | Plant response rating, Lambsquarters (lambsquarters; Postemergence, 16 g ai/ha)
40: Plant response rating, Chamomile (chamomile [3]; 250 g ai/ha) | Plant response rating, Pigweed (pigweed [5]; Postemergence, 16 g ai/ha) | Chamomile plant response rating (chamomile [6]; Postemergence, 125 g ai/ha)
90: Pigweed plant response rating (pigweed [5]; Postemergence, 250 g ai/ha)
50: Plant response rating, Field Violet (field violet; 125 g ai/ha) | Plant response rating, Field Violet (field violet; 250 g ai/ha) | Plant response rating, Deadnettle (deadnettle; 125 g ai/ha) | Plant response rating, Galium (galium; Postemergence, 16 g ai/ha) | Chamomile plant response rating (chamomile [6]; Postemergence, 250 g ai/ha) | Radish, Wild plant response rating (radish, wild; Postemergence, 125 g ai/ha)
85: Lambsquarters plant response rating (lambsquarters; Postemergence, 31 g ai/ha) | Radish, Wild plant response rating (radish, wild; Postemergence, 250 g ai/ha)
98: Lambsquarters plant response rating (lambsquarters; Postemergence, 125 g ai/ha) | Lambsquarters plant response rating (lambsquarters; Postemergence, 250 g ai/ha) | Lambsquarters plant response rating (lambsquarters; postemergence, 62 g ai/ha)
30: Plant response rating, Deadnettle (deadnettle; 62 g ai/ha) | Chamomile plant response rating (chamomile [6]; Postemergence, 31 g ai/ha) | Chamomile plant response rating (chamomile [6]; postemergence, 62 g ai/ha)
75: Plant response rating, Canarygrass (canarygrass; 250 g ai/ha) | Plant response rating, Ryegrass, Italian (ryegrass, Italian; 250 g ai/ha) | Plant response rating, Pigweed (pigweed [2]; 250 g ai/ha) | Galium plant response rating (galium; Postemergence, 125 g ai/ha) | Pigweed plant response rating (pigweed [5]; Postemergence, 125 g ai/ha)
0: Plant response rating (scale 0 to 100), Bluegrass (bluegrass [1]; [7]) | Plant response rating, Bluegrass (bluegrass [1]; 31 g ai/ha) | Plant response rating, Bluegrass (bluegrass [1]; 62 g ai/ha) | Plant response rating, Bluegrass (bluegrass [1]; 125 g ai/ha) | Plant response rating (scale 0 to 100), Canarygrass (canarygrass; [7]) | Plant response rating, Canarygrass (canarygrass; 31 g ai/ha) | Plant response rating, Canarygrass (canarygrass; 62 g ai/ha) | Plant response rating (scale 0 to 100), Field Violet (field violet; [7]) | Plant response rating, Field Violet (field violet; 31 g ai/ha) | Plant response rating, Field Violet (field violet; 62 g ai/ha) | Plant response rating (scale 0 to 100), Deadnettle (deadnettle; [7]) | Plant response rating (scale 0 to 100), Ryegrass, Italian (ryegrass, Italian; [7]) | Plant response rating, Ryegrass, Italian (ryegrass, Italian; 31 g ai/ha) | Plant response rating, Ryegrass, Italian (ryegrass, Italian; 62 g ai/ha) | Plant response rating, Pigweed (pigweed [2]; 62 g ai/ha) | Plant response rating (scale 0 to 100), Chamomile (chamomile [3]; [7]) | Plant response rating, Chamomile (chamomile [3]; 31 g ai/ha) | Plant response rating, Chamomile (chamomile [3]; 62 g ai/ha) | Plant response rating (scale 0 to 100), Barley, Spring (barley, spring; 16 g ai/ha, taken as preemergence, 0 = no effect, 100 = complete control) | Plant response rating, Barley, Spring (barley, spring; 31 g ai/ha) | Plant response rating, Barley, Spring (barley, spring; 62 g ai/ha) | Plant response rating, Barley, Spring (barley, spring; 125 g ai/ha) | Plant response rating (scale 0 to 100), Barley, Winter (barley, winter; [7]) | Plant response rating, Barley, Winter (barley, winter; 31 g ai/ha) | Plant response rating, Barley, Winter (barley, winter; 62 g ai/ha) | Plant response rating, Barley, Winter (barley, winter; 125 g ai/ha) | Plant response rating (scale 0 to 100), Buckwheat, Wild (buckwheat, wild; [7]) | Plant response rating, Buckwheat, Wild (buckwheat, wild; 31 g ai/ha) | Plant response rating, Buckwheat, Wild (buckwheat, wild; 62 g ai/ha) | Plant response rating, Buckwheat, Wild (buckwheat, wild; 125 g ai/ha) | Plant response rating, Bluegrass (bluegrass [4]; Postemergence, 16 g ai/ha) | Bluegrass plant response rating (bluegrass [4]; Postemergence, 31 g ai/ha) | Bluegrass plant response rating (bluegrass [4]; Postemergence, 125 g ai/ha) | Bluegrass plant response rating (bluegrass [4]; Postemergence, 250 g ai/ha) | Bluegrass plant response rating (bluegrass [4]; postemergence, 62 g ai/ha) | Plant response rating, Blackgrass (blackgrass; Postemergence, 16 g ai/ha) | Blackgrass plant response rating (blackgrass; Postemergence, 31 g ai/ha) | Blackgrass plant response rating (blackgrass; Postemergence, 125 g ai/ha) | Blackgrass plant response rating (blackgrass; Postemergence, 250 g ai/ha) | Blackgrass plant response rating (blackgrass; postemergence, 62 g ai/ha) | Plant response rating, Bromegrass, Downy (bromegrass, downy; Postemergence, 16 g ai/ha) | Bromegrass, Downy plant response rating (bromegrass, downy; Postemergence, 31 g ai/ha) | Bromegrass, Downy plant response rating (bromegrass, downy; Postemergence, 125 g ai/ha) | Bromegrass, Downy plant response rating (bromegrass, downy; postemergence, 62 g ai/ha)
100: Plant response rating, Deadnettle (deadnettle; 250 g ai/ha) | Plant response rating, Buckwheat, Wild (buckwheat, wild; 250 g ai/ha)
25: Plant response rating, Deadnettle (deadnettle; 31 g ai/ha)
20: Plant response rating, Canarygrass (canarygrass; 125 g ai/ha) | Plant response rating, Ryegrass, Italian (ryegrass, Italian; 125 g ai/ha)
